Assay results: PMC2361071, “A phase I and pharmacokinetic study of novel taxane BMS-188797 and cisplatin in patients with advanced solid tumours” (British Journal of Cancer, 2005)
“Also recorded” adds a separate entry of the source. Where two headings read alike, the source gives them in different places.

Tests used:
[1] = system: patients with advanced solid tumours; assay: Phase I dose escalation of BMS-188797 plus cisplatin: DLT, MTD and toxicity (NCI CTC v2.0); type: in vivo
Description: This study was an open-label, single-centre, phase I, dose-escalation trial with the primary objective to determine the MTD and DLT and to recommend a future phase II dose. Secondary objectives were safety, antitumour activity and pharmacokinetics of the experimental drug. The study was carried out with ethical committee approval.
BMS-188797 administered by a 1-h infusion was followed by a 1-h infusion of cisplatin starting 30 min after the end of the BMS-188797 infusion; both drugs were given on day 1, every 3 weeks. Six treatment cycles were planned. Treatment had to be discontinued upon progression or occurance of intolerable toxicity.
If no further DLT occurred, the next DL was opened. If the total number of patients with DLT at any DL was two or higher, then dose escalation was terminated and additional patients were enrolled at the next lower DL. The MTD was defined as the DL at which none of the three or one of six patients experienced a DLT. Once the MTD had been established, accrual at the respective DL was expanded to determine its suitability as the recommended phase II dose.
The DLT was defined as first-course toxicity with ANC <500 μl^−1 for ⩾5 days, or febrile neutropenia (fever >38.5°C and ANC <1000 μl^−1), or thrombocytopenia <25,000 μl^–1; or bleeding requiring platelet transfusion, or any other drug-related grade ⩾3 toxicity except fatigue/asthenia, transient arthralgia/myalgia, or grade 3 AST/ALT elevation (resolving to baseline within 3 weeks). Furthermore, delayed recovery from toxicity related to treatment with BMS-188797 and cisplatin that delayed scheduled retreatment for 21 days or longer was regarded as DLT.
(§1) Toxicity was evaluated according to NCI CTC (Vers. 2.0; revised April 30, 1999) in all patients receiving study drug. Tumour measurement was performed in patients with measurable disease after every other cycle; response was assessed according to World Health Organization (WHO) criteria. Ascites or serum tumour marker elevations were not considered in the assessment of response status except in case of progressive disease or complete remission when both had to be normalised.

[2] = system: paclitaxel-resistant tumour models in mice; design: method as in Rose et al, 2001; conditions: ref Rose et al, 2001; cited from earlier work
[3] = system: patients with advanced malignancies; design: method as in Sullivan et al, 2000; conditions: single agent, 1-h infusion every 3 weeks; ref Sullivan et al, 2000; cited from earlier work
[4] = system: patients with advanced solid tumours; assay: Antitumour activity, response by WHO criteria; type: in vivo, human
Description: as §1

patients = system: patients; design: method as in Sullivan et al, 2001; conditions: ref Sullivan et al, 2001, cited from earlier work
[5] = system: patients with advanced malignancies; design: method as in Advani et al, 2002; conditions: weekly BMS-188797 with carboplatin, DLs AUC 6/33 mg m−2 and AUC 5/43 mg m−2, preliminary data; ref Advani et al, 2002; cited from earlier work
[6] = system: human tumour cell lines highly resistant to paclitaxel; design: method as in Rose et al, 2001; conditions: ref Rose et al, 2001, cited from earlier work
[7] = system: patients with advanced malignancies; design: method as in Advani et al (2003); conditions: single agent, weekly administration; ref Advani et al (2003); cited from earlier work
[8] = Plasma pharmacokinetics of BMS-188797 in patients, cycle 1 (HPLC, noncompartmental analysis); type: in vivo, human; conditions: for AUC(0-inf) / Cmax / half-life: human, plasma, intravenous
Description: In all, 5 ml of blood were collected for pharmacokinectic analysis using Becton-Dickenson Vacutainers® that contained K3EDTA as the anticoagulant. Blood sampling for pharmacokinetics analysis was performed in all patients during cycle 1. Serial blood samples were drawn at the following times relative to the start of the 1 h infusion of BMS-188797: predose, 30 min, 58 min (drawn prior to the end of the infusion), and 1.25, 1.5, 2, 2.5, 3, 4, 5, 6, 8, 24, 48 and 72 h. Within 1 h of collection, the plasma was separated by centrifugation at 1000 rpm for 15 min at 4°C. Plasma was stored at or below […] until analysis. Plasma samples were analysed for BMS-188797 concentrations by HPLC. After the addition of internal standard, BMS-183061, to 1.0 ml of plasma, the sample was loaded onto a CN-U solid-phase extraction column. The compounds were eluted with 0.1% formic acid in methanol, the eluate evaporated to dryness, and the residue reconstituted. Chromatographic separation of the compounds was achieved on a YMC-ODS-AQ, 4.6 × 150 mm, 3 μm column using a mobile phase containing 30% water in acetonitrile. Detection was by ultraviolet absorbance at 228 nm. The standard curve range was 2–1000 ng ml^−1. The coefficient of variation (CV) for the between- and within-run precision for analytical quality control samples were no greater than 3.0 and 7.1%, respectively
Estimates of pharmacokinetic parameters for BMS-188797 were derived from individual concentration–time data sets by noncompartmental analyses ([Gibaldi and Perrier, 1982]). The values of the maximum plasma concentration (Cmax) were recorded directly from experimental observations. The area under the plasma concentration vs. time curve from time zero to the time of the last measurable concentration T (AUC0-T) was calculated using a combination of linear and log trapezoidal summations. The first-order rate constant of decline of BMS-188797 concentrations in the terminal phase of the plasma concentration–time data set, λ, was estimated by log-linear regression, using no weighting factor, of at least three data points yielding a minimum mean square error. The absolute value of λ was used to estimate the apparent terminal elimination half-life, t1/2. The last measurable concentration and the rate constant, λ, were used to extrapolate the AUC0-T to estimate AUC0-∞ (the area under the curve from time zero to infinity). The total body clearance (Cl) was calculated by dividing the dose by AUC0-∞. The volume of distribution at steady state (VSS) was calculated using standard noncompartmental methods.

[9] = 1-h infusion every 3 weeks combined with cisplatin 75 mg m−2
[10] = 80 mg m−2 1-h infusion with cisplatin 75 mg m−2, cycle 1, n=3, mean±s.d.
[11] = 110 mg m−2 1-h infusion with cisplatin 75 mg m−2, cycle 1, n=12, mean±s.d.
[12] = 150 mg m−2 1-h infusion with cisplatin 75 mg m−2, cycle 1, n=1
[13] = mean±s.d. of the three dose groups (80, 110, 150 mg m−2), cycle 1

## COC(=O)O[C@@]12CO[C@@H]1C[C@H](O)[C@@]1(C)C(=O)[C@H](OC(C)=O)C3=C(C)[C@@H](OC(=O)[C@H](O)[C@@H](NC(=O)c4ccccc4)c4ccccc4)C[C@@](O)([C@@H](OC(=O)c4ccccc4)[C@H]21)C3(C)C [BMS-188797, 4-desacetyl-4-methyl carbonate derivate of paclitaxel]
[1]; 110 mg m−2 DL, with steroid and H1/H2-antagonist premedication
  Mild hypersensitivity reactions (grade 2 rash and dyspnea), patients affected: only one patient
[1]; [9]
  maximum tolerated dose (MTD): 110 mg m^−2
  recommended phase II dose: 110 mg m^−2
[1]; DL 1, 80 mg m−2
  median duration of neutropenia: 4 days
  median time to the neutrophil nadir: 12 days
[1]; DL 2, 110 mg m−2
  median duration of neutropenia: 8 days
  median time to the neutrophil nadir: 14 days
[1]; DL 2, 110 mg m−2 with cisplatin 75 mg m−2
  MTD (dose level designated): MTD
[1]; DL 3, 150 mg m−2
  median duration of neutropenia: 4 days
  median time to the neutrophil nadir: 8 days
[1]; all dose levels, 16 patients
  alopecia, patients affected: All patients but one
[2]
  in vivo activity: potent in vivo activity
[3]
  maximum tolerated dose (MTD): 175 mg m^−2
[4]; DL 1, 80 mg m−2 with cisplatin, ovarian cancer, NSCLC, CUP
  stable disease as best response, patients: three patients
[4]; DL 2, 110 mg m−2 with cisplatin, lung cancer (two), ovarian sarcoma, CUP
  progressive disease, patients: Four patients
[4]; DL 2, 110 mg m−2 with cisplatin, ovarian (two) and cervical cancer (one)
  complete remissions: three complete remissions
[4]; DL 2, 110 mg m−2 with cisplatin, ovarian cancer
  partial response: One partial response
[4]; DL 2, 110 mg m−2 with cisplatin, urachus carcinoma and NSCLC
  stable disease, patients: two patients
[4]; DL 3, 150 mg m−2 with cisplatin, CUP
  best response of the only patient treated: disease progression
[4]; all dose levels, 16 patients
  objective response, patients: four patients
patients; with carboplatin AUC 5, every 3 weeks
  MTD: 125 mg m^−2
patients; with carboplatin, every 3 weeks
  Dose-limiting toxicities (DLT): febrile neutropenia and slow recovery from neutropenia
[5]
  dose-limiting toxicities: prolonged grade 4 neutropenia and delayed haematological recovery
[6]; cell lines resistant through P-glycoprotein overexpression or beta-tubulin mutations
  antiproliferative activity: potent antiproliferative activity
[6]
  cell cycle effect: G2/M cell cycle arrest
[7]
  MTD: 50 mg m^−2
[8]; [10]
  Cl: 333±14 (317, 344) ml min−1 m−2
  VSS: 331±135 (214, 478) l m−2
  AUC(0-inf): 4000 ± 184 ng·h/mL
  Cmax: 2650 ± 690 ng/mL
[8]; 110 mg m−2
  interpatient coefficient of variation of CL: 19%
  interpatient coefficient of variation of VSS: 35%
  interpatient coefficient of variation of t1/2: 24%
[8]; [11]
  Cl: 322±60 (234, 437) ml min−1 m−2
  VSS: 244±86 (115, 395) l m−2
  AUC(0-inf): 5870 ± 1060 ng·h/mL
  Cmax: 3370 ± 591 ng/mL
[8]; 110 mg m−2 DL
  range of AUC0-∞ values: 1.8 fold
[8]; [12]
  Cl: 206 NA ml min−1 m−2
  VSS: 209 NA l m−2
  AUC(0-inf): 12200 ng·h/mL
  Cmax: 5770 ng/mL
[8]; 80-150 mg m−2 with cisplatin 75 mg m−2
  dose dependence (linearity) of pharmacokinetics: appeared linear through the 110 mg m^−2, but not through the 150 mg m^−2 DL; also recorded: appeared independent of dose through the 110 mg m^−2 DL, but not through the 150 mg m^−2 DL; also recorded: appeared linear through a DL of 110 mg m^−2
[8]; 80 mg m−2 1-h infusion with cisplatin 75 mg m−2, cycle 1, n=3, mean±s.d., read-out: t1/2 (converted)
  half-life: 31 ± 11.7 h
[8]; 110 mg m−2 1-h infusion with cisplatin 75 mg m−2, cycle 1, n=12, mean±s.d., read-out: t1/2 (converted)
  half-life: 30.6 ± 7.5 h
[8]; 150 mg m−2 1-h infusion with cisplatin 75 mg m−2, cycle 1, n=1, read-out: t1/2 (converted)
  half-life: 31.4 h
[8]; 150 mg, mean±s.d. of the three dose groups (80, 110, 150 mg m−2), cycle 1, read-out: terminal half-life (converted)
  half-life: 30.8 ± 7.7 h
[8]; [13]
  clearance: 317±60 ml min^−1 m^−2
  volume of distribution at steady state: 258±96 l m^−2
[8]; n=1 at 150 mg m−2
  clearance in the 150 mg m−2 patient relative to patients at 80 or 110 mg m−2: approximately one-third lower
